Source: US20210000750A1, “ENGINEERED NANOVESICLES AS CHECKPOINT BLOCKADE FOR CANCER IMMUNOTHERAPY” (NORTH CAROLINA STATE UNIVERSITY, priority 2018, published 2021)

Assays:
B16F10 melanoma tumor = assay: In vivo anti-tumor efficacy study of NVs; set-up: species or system C57BL/6 mice; conditions: seven-group study, every 3 days for five cycles
Experimental: Female C57BL/6 mice were purchased from Jackson Lab (USA). All mouse studies were performed in the context of an animal protocol approved by the Institutional Animal Care and Use Committee at North Carolina State University and University of North Carolina at Chapel Hill. Mice were weighed and randomly divided into different groups. 5 d after 1×10^6 B16F10 tumor cells subcutaneously transplanted into the abdomen of mice (the tumor reaches 40-50 mm^3), PBS, Free nanovesicles (25 mg/kg), PD-1 nanovesicles (25 mg/kg), 1-MT (2.5 mg/kg), 1-MT loaded PD-1 nanovesicles (25 mg/kg), anyi-PD-L1 antibody (2 mg/kg) were administered into mice by tail-vein injection. Tumor incidences were monitored by physical examination and sizes were also measured by digital caliper over time. Tumors were measured by using a vernier calipers and the volume (V) was calculated to be V=d^2×D/2, where d is the shortest and the D is longest diameter of the tumor in mm respectively. To assess potential toxicities, mice were monitored daily for weight loss. For survival assays, the experiments were performed separately.
Bioluminescence images were collected with a Xenogen IVIS Spectrum Imaging System. Living Image software (Xenogen) was used to acquire the data 10 min after intraperitoneal injection of d-luciferin (Pierce) in DPBS (15 mg/mL) into animals (10 μL/g of body weight).

CD8^+ TILs = assay type: in vivo, C57BL/6 mice; conditions: five-group cyclophosphamide study
Experimental: Tumors were dissected from the mice and snap frozen in optimal cutting medium (O.C.T.). Several micrometer sections were cut using a cryotome and mounted on slides. The frozen tumor sections were incubated in PBS for 15 min to remove the embedding medium. The specimens were blocked with the buffer containing 3% BSA. Subsequently, the specimens incubated with CD4 and CD8 primary antibodies (1:50 in 3% BSA) overnight and then washed three times with PBS for 5 min each. After that the specimens were incubated with TRITC secondary antibody (KPL) diluted in 3% BSA at room temperature in the dark for 1 h. Finally, the nucleus was stained with DAPI, and the tissue was washed three times with PBS for 5 min each. Confocal microscopy was performed on a FLUO-VIEW laser scanning confocal microscope […] in sequential scanning mode using a 40×objective.

[1] = five-group cyclophosphamide study
From the text: (§1) B16F10 luciferase-tagged B16F10 (1×10^6) melanoma tumor cells were transplanted into the right flank of C57BL/6 mice. Eight days after tumor inoculation, the tumors volume reach around ˜150 mm^3. These tumors were then resected, leaving about 15 mm^3 (10%) tumor volume to mimic the residual tumors in the surgical bed. Briefly, animals were anesthetized in an induction chamber using isoflurane (up to 5% for induction; 1-3% for maintenance), and anaesthesia was maintained via a nose cone. The tumor area was clipped and aseptically prepped. Sterile instruments were used to remove approximately 90% of the tumor. The wound was closed using an Autoclip wound closing system. The mice were randomly divided into several groups of eight mice (n=8) as indicated. The mice firstly were intravenously injected with different treatment formulations: PBS, free platelets […], PD-1 platelets (˜2×10^8), cyclophosphamide (20 mg/kg), cyclophosphamide loaded free platelets (˜2×10^8) or cyclophosphamide loaded PD-1 platelets (˜2×10^8). Immediately after the injection, the surgery was carried out within 10 min one mouse by one mouse. The tumor burden was monitored via the bioluminescence of the cancer cells.

[2] = tested on: B16F10 melanoma residual tumor; assay: In vivo anti-tumor efficacy, incomplete-tumor-resection model; set-up: species or system C57BL/6 mice; conditions: five-group cyclophosphamide study
From the text: as §1

Tregs = assay type: in vivo, C57BL/6 mice; conditions: five-group cyclophosphamide study

For `Cn1cc(C[C@H](N)C(=O)O)c2ccccc21` [1-MT, 1-methyl-tryptophan], the “suppression of tumor growth” value (B16F10 melanoma tumor) was “limited suppression of tumor growth”.
With `O=P1(N(CCCl)CCCl)NCCCO1` (centres unmarked) [cyclophosphamide] the “frequency of Ki67+ T cells” value (CD8^+ TILs) was “increased the frequency”, the “hair growth and weight loss” value [1] was “delayed hair growth in the abdomen and slighted weight loss” and the tumor progression [2] was “limited results”. The “Tregs within the tumor” value (Tregs) was “selectively depleted Tregs”.
